How the values were obtained:
[1] = test system: Transmissible Gastroenteritis virus; test: In vitro plaque suppression test
[2] = test system: Infectious Canine Hepatitis virus; test: In vitro plaque suppression test
[3] = test system: type B influenza virus (Maryland, dog kidney); test: In vitro plaque suppression test; type: cell-based
Bacillus subtilis [4] = test: Conventional disc-diffusion method, Table VIII; type: cell-based; conditions: each as Na-K salts
Protocol: (§1) The antimicrobial activity of two typical A-32887 acyl ester derivatives is compared with that of A-32887 (each as Na-K salts) in Table VIII. Activity against illustrative bacteria is measured by the conventional disc-diffusion method. In addition, the results of a conventional paper-disc agar-diffusion assay system (Plate Assay) against Bacillus subtilis ATCC 6633 are reported. […] The samples were assayed at 1 mg/ml.

Staphylococcus aureus = test: Conventional disc-diffusion method, Table VIII; type: cell-based; conditions: each as Na-K salts
Protocol: as §1

Micrococcus lutea = test: Conventional disc-diffusion method, Table VIII; type: cell-based; conditions: each as Na-K salts
Protocol: as §1

Bacillus subtilis [5] = test: Conventional disc-diffusion method, minimal media, Table VIII; type: cell-based; conditions: each as Na-K salts
[6] = Ion binding / ion transport (ionophore)
Text: A-32887 can be used when the selective removal of particular cations is desired. Examples of such uses include the removal and recovery of silver ions from solutions in photography, the removal of toxic cations from industrial waste streams before such streams are discharged to the environment, and desalinization of sea water. A-32887 can be used as one component of an ion-specific electrode (O. Kedem, et al., U.S. Pat. No. 3,753,887, Aug. 21, 1973, Alkali metal specific measuring electrode). […] A-32887 can be used, therefore, as a component in a membrane used for the selective transport of cations against a concentration gradient. One potential application of this property is in recovery of heavy and precious metals on a commercial basis [see E. L. Cussler, D. F. Evans, and Sister M. A. Matesick, Science 172, 377 (1971)].

## CO[C@H]1CC[C@H](OC2[C@@H](C)[C@@](C)(O)O[C@H]([C@H]3CC[C@H]([C@@H]4CC[C@H]([C@@]5(C)O[C@]6(O[C@H](C[C@@H]7O[C@](O)([C@@H](O)C(=O)O)[C@@H](C)[C@H](OC)[C@@]7(C)OC)C[C@@H](OC)[C@H]6C)[C@H](C)[C@H]5OC)O4)O3)[C@H]2C)O[C@@H]1C.[K+].[Na+] (stereo partly drawn) [A-32887]
[1]
  antiviral activity: active
[2]
  antiviral activity: active
[3]
  antiviral activity: active
Bacillus subtilis [4]
  activity by disc-diffusion, Bacillus subtilis: 18
Staphylococcus aureus
  activity by disc-diffusion, Staphylococcus aureus: 16
Micrococcus lutea
  activity by disc-diffusion, Micrococcus lutea: 16
Bacillus subtilis [5]
  activity by disc-diffusion, Bacillus subtilis: 30
[6]
  cation permeability of natural and artificial membranes: alters the cation permeability of both natural and artificial membranes
  ion-binding and ion-transport properties: exhibits ion-binding and ion-transport properties
